Measurements reported in patent US20110086395A1, “NOVEL MICROORGANISM AND ITS USE IN LIGNOCELLULOSE DETOXIFICATION” (priority 2009, published 2011).
Marks after values point to notes of the source that are not given here.

Assays:
[1] = system: C. basilensis HMF14; assay: Degradation of constituents of lignocellulosic hydrolysate, shake-flask cultures with each compound as single carbon source; type: cell-based, Cupriavidus basilensis
From the text: In addition to the furan derivatives, lignocellulosic hydrolysate also contains many other components that can inhibit fermentative production of biochemicals. While C. basilensis HMF14 is unable to degrade the sugars present in lignocellulosic hydrolysate, it preferably degrades many of the other toxic constituents, as illustrated in shake-flask cultures with each compound as a single carbon source (table 3).

[2] = system: Cupriavidus sp. HMF14; assay: Growth of Cupriavidus sp. HMF14 on carbon sources (strain characterization); type: cell-based, Cupriavidus basilensis
[3] = system: C. basilensis HMF14; assay: Detoxification of wheat straw hydrolysate by C. basilensis HMF14; type: cell-based, Cupriavidus basilensis; settings: for Removal from wheat straw hydrolysate: after ten hours of cultivation; for Concentration in hydrolysate during cultivation: during the first ten hours of cultivation
Method: Wheat straw hydrolysate was produced by dilute-acid hydrolysis (obtained from TNO Quality of Life, Zeist, The Netherlands). The hydrolysate was neutralized by adding 37 mM phosphate buffer (pH 7) and adjusting the pH to 7.0 with 10 M NaOH, resulting in a brown precipitate. After addition of minimal medium components, the solution was centrifuged at 10 000×g for 5 min. The supernatant was filter sterilized through a sterile PTFE filter with a pore size of 0.22 μm. The resulting medium (MMhyd) was inoculated with an overnight pre-culture of C. basilensis HMF14 in minimal medium with 3 mM HMF, 3 mM furfural and 12 mM sodium succinate.
(§1) Bacterial growth was determined by measuring optical density at 600 nm (OD600) using a Biowave Cell Density Meter (WPA Ltd) or a μQuant MQX200 universal microplate spectrophotometer (Bio-tek), using flat-bottom 96-well microplates (Greiner). Furan derivatives were analyzed on an Agilent 1100 system equipped with a diode array detector set at 230 nm. The column used was a Zorbax Eclipse XDB-C8 (length, 150 mm; internal diameter, 4.6 mm; particle size, 5 μm; Agilent) operated at 25° C. As eluent, a gradient of acetonitrile in 20 mM KH2PO4 (pH 2) with 1% acetonitrile was used at a flow of 1.2 ml/min, increasing from 0 to 5% in 3.5 min and from 5 to 40% in 2.5 min, set as smooth gradients.
Glucose, xylose and arabinose were analyzed by ion chromatography (Dionex ICS3000 system), using a CarboPac PA20 column (length, 150 mm; internal diameter, 3 mm) with 10 mM NaOH at a flow rate of 0.5 ml·min−1 as the eluent.

[4] = system: HmfFG; assay: Decarboxylase activity of HmfFG in cell extracts; type: biochemical; settings: cell extracts of wildtype C. basilensis HMF14 and P. putida S12 expressing HmfFG
[5] = system: C. basilensis HMF14; assay: Growth of C. basilensis HMF14 on furan derivatives as sole carbon source; type: cell-based, Cupriavidus basilensis; settings: minimal medium, 3.5 mM compound as sole carbon source
Method: Cultures were performed either in Luria broth (LB) or in a minimal medium (MM). Enrichment cultures were performed in MM with 20 mM HMF as the carbon source (MMH20), supplemented as indicated with 0.1 g/l yeast extract as vitamin source (MMyH20). Solid media contained 1.5% agar. Soil and water samples were collected from the botanical garden of the Delft University of Technology and from a peat lake named ‘het Kootwijkerveen’ near Apeldoorn, The Netherlands. The samples were mixed and approximately 1 g was used to inoculate 50 ml MMH2O or MMyH2O in 500-ml Erlenmeyer flasks that were incubated at 30° C. for two days in a rotary shaker. One-ml samples were transferred twice to fresh medium and incubated until bacterial growth was apparent (OD600>1). The final enrichment cultures were streaked onto solid MMH10 and MMyH10 and incubated at 30° C. until colonies appeared.
as §1
In addition to HMF, other furan derivatives are present in lignocellulosic hydrolysates. […] Growth was observed on all tested furan derivatives, with slightly different growth characteristics (table 1). In cultures on furfural, furfural was initially rapidly converted to furfuryl alcohol, while also a small amount of furoic acid was formed (FIG. 1). Without wishing to be bound to any particular theory, conversion of furfural to its alcohol and/or acid form appears to be a common mechanism of furfural detoxification. At the onset of logarithmic growth, furfuryl alcohol production decreased in favour of biomass formation, which likely occurs via furoic acid. Similarly, HMF acid and -alcohol were formed in cultures with HMF as the carbon source. In addition, trace amounts of 2,5-furandicarboxylic acid and furoic acid were found in the HMF cultures (not shown).

[6] = system: C. basilensis HMF14; assay: Tolerance of C. basilensis HMF14 towards furfural and HMF, shake-flask cultures; type: cell-based, Cupriavidus basilensis; settings: for Growth in the presence of compound: 5 mM; for Growth after 24 h of cultivation: shake-flask cultures with 3-15 mM furfural or HMF
Method: C. basilensis HMF14 grew in the presence of 5 mM of furfural or HMF (0.48 g/l, and 0.63 g/l respectively). However, since the concentration of these toxic compounds is often higher in lignocellulosic hydrolysates, with values ranging from 0 to 3.5 g/l for furfural, and from 0 to 5.9 g/l for HMF, the tolerance of C. basilensis HMF14 towards furfural and HMF was determined in shake-flask cultures with 3-15 mM furfural or HMF (FIG. 2, table 2). […] Also in the HMF cultures, no stable exponential growth was observed, but the apparent growth rate decreased rather than increased with increasing HMF concentrations.

[7] = system: P. putida S12 pJT′hmfABCDE; assay: Growth of P. putida S12 pJT′hmfABCDE on furanics as sole carbon source; type: cell-based, Pseudomonas putida; settings: growth initially poor
From the text: (§2) First, the furfural cluster hmfABCDE was introduced into P. putida S12. […] Therefore, strain S12 pJT′hmfABCDE was repeatedly transferred to fresh mineral salts medium with furfural as the sole carbon source.

[8] = system: P. putida strain S12_fur; assay: Growth of P. putida S12_fur on furfural as sole carbon source; type: cell-based, Pseudomonas putida
From the text: as §2

[9] = system: P. putida S12_HMF; assay: Growth of P. putida S12_HMF on furfural or HMF as sole carbon source; type: cell-based, Pseudomonas putida
From the text: Subsequently, the hmfFGH genes were cloned into P. putida S12_fur. […] Gene hmfH′ was apparently dispensable for growth on HMF, confirming that the encoded gene had no function in HMF metabolism. Nor was the gene essential for HMF transport in P. putida S12. Thus, also all genes required for the utilization of HMF were characterized, and their functionality was reconfirmed by functional expression in a heterologous host.

[10] = system: HmfH; assay: Oxidation by HmfH in cell extracts; type: biochemical; settings: cell extracts of wildtype C. basilensis HMF14 and P. putida S12 expressing HmfH
Method: C. basilensis HMF14 mutants with a disrupted hmfH gene accumulated HMF acid when cultured in the presence of HMF. Cell extracts of both wildtype C. basilensis HMF14 and P. putida S12 expressing HmfH formed FDCA when incubated with HMF acid, confirming that HmfH catalyzes the oxidation of the HMF-monocarboxylic acid to the dicarboxylic acid form.
Analogous to the furfural pathway, no specific genes were identified for the oxidations in the upper HMF metabolic pathway leading from HMF-alcohol to HMF and HMF-acid. Also these oxidations were concluded to be performed by non-specific, redundant dehydrogenases which activities were observed both in C. basilensis HMF14 and P. putida S12 (Table 2). However, it was observed that also HmfH could oxidize HMF, furfural, and furfuryl alcohol to the corresponding acids, respectively, furfural. Apparently, this oxidase is essential for the formation of FDCA from HMF-acid but also provides an oxidase-alternative to the non-specific alcohol and aldehyde dehydrogenases that constitute the upper metabolic pathways for HMF and furfural.

[11] = system: Ralstonia eutropha; settings: cited from earlier work
[12] = system: P. putida S12 strains expressing only HmfABCD or HmfABC; assay: Growth of P. putida S12 strains expressing only HmfABCD or HmfABC; type: cell-based, Pseudomonas putida
[13] = shake-flask cultures, compound as single carbon source

Compound: O=Cc1ccc(O)cc1 [4-hydroxybenzaldehyde]
- Substrate utilization by C. basilensis HMF14 [1, 13]: Y

Compound: O=C(O)c1ccc(O)cc1 [4-hydroxybenzoic acid]
- Substrate utilization by C. basilensis HMF14 [1, 13]: Y

Compound: OCc1ccc(O)cc1 [4-hydroxybenzyl alcohol]
- Substrate utilization by C. basilensis HMF14 [1, 13]: Y

Compound: CC(=O)O [Acetic acid]
- Substrate utilization by C. basilensis HMF14 [1, 13]: Y
- Growth on carbon source [2]: able to grow
- Removal from wheat straw hydrolysate [3]: completely removed

Compound: O=C[C@@H](O)[C@H](O)[C@H](O)CO [Arabinose]
- Substrate utilization by C. basilensis HMF14 [1, 13]: N
- Growth on carbon source [2]: No growth
- Concentration in hydrolysate during cultivation [3]: stable

Compound: O=C(O)c1ccc(C(=O)O)o1 [FDCA, 2,5-furan-dicarboxylic acid]
- Decarboxylation by HmfFG [4]: formed 2-furoic acid

Compound: COc1cc(/C=C/C(=O)O)ccc1O [Ferulic acid]
- Substrate utilization by C. basilensis HMF14 [1, 13]: Y

Compound: O=CO [Formic acid]
- Substrate utilization by C. basilensis HMF14 ([1]; only co-utilized with a different carbon source): Y^b
- Removal from wheat straw hydrolysate [3]: completely removed

Compound: O=Cc1ccco1 [Furfural]
- Max. OD600 [5]: 1.09
- μmax [5]: 0.22 h⁻¹
- Substrate utilization by C. basilensis HMF14 [1, 13]: Y
- Growth in the presence of compound [6]: grew
- Growth after 24 h of cultivation [6]: growth was observed at all concentrations tested
- Utilization as sole carbon source [7]: able to utilize
- Biomass yield [8]: 51 % (C-mol biomass/C-mol substrate)
- Growth rate ([8]; after 10 serial transfers): 0.30 h⁻¹
- Growth rate [9]: 0.23 h⁻¹
- Yield [9]: 40 % (C-mol biomass/C-mol substrate)
- Oxidation by HmfH [10]: could oxidize
- Metabolic activity of R. Eutropha on compound [11]: high metabolic activity

Compound: OCc1ccco1 [Furfuryl alcohol]
- Max. OD600 [5]: 1.08
- μmax [5]: 0.22 h⁻¹
- Substrate utilization by C. basilensis HMF14 [1, 13]: Y
- Utilization as sole carbon source [7]: able to utilize
- Oxidation by HmfH [10]: could oxidize

Compound: O=C(O)c1ccco1 [Furoic acid]
- Max. OD600 [5]: 0.99
- μmax [5]: 0.29 h⁻¹
- Utilization as sole carbon source [7]: able to utilize
- Growth on compound [12]: failed to grow

Compound: COc1ccccc1O [Guaiacol]
- Substrate utilization by C. basilensis HMF14 [1, 13]: Y

Compound: O=C(O)c1ccc(CO)o1 [HMF acid, 5-hydroxymethyl-2-furancarboxylic acid]
- Decarboxylation by HmfFG [4]: not decarboxylated
- Oxidation by HmfH [10]: formed FDCA

Compound: O=Cc1ccc(CO)o1 [HMF, 5-(hydroxymethyl)-furfural]
- Max. OD600 [5]: 0.95
- μmax [5]: 0.25^a h−1
- Substrate utilization by C. basilensis HMF14 [1, 13]: Y
- Growth in the presence of compound [6]: grew
- Growth after 24 h of cultivation [6]: growth was observed at all concentrations tested
- Growth rate [9]: 0.23 h⁻¹
- Yield [9]: 40 % (C-mol biomass/C-mol substrate)
- Oxidation by HmfH [10]: could oxidize

Compound: CC(=O)CCC(=O)O [Levulinic acid]
- Substrate utilization by C. basilensis HMF14 [1, 13]: Y

Compound: Oc1ccccc1 [Phenol]
- Substrate utilization by C. basilensis HMF14 [1, 13]: Y
- Growth on carbon source [2]: able to grow

Compound: COc1cc(C=O)cc(OC)c1O [Syringaldehyde]
- Substrate utilization by C. basilensis HMF14 [1, 13]: N

Compound: COc1cc(C(=O)O)cc(OC)c1O [Syringic acid]
- Substrate utilization by C. basilensis HMF14 [1, 13]: N

Compound: COc1cccc(OC)c1O [Syringol]
- Substrate utilization by C. basilensis HMF14 [1, 13]: N

Compound: COc1cc(C(=O)O)ccc1O [Vanillic acid]
- Substrate utilization by C. basilensis HMF14 [1, 13]: Y

Compound: COc1cc(C=O)ccc1O [Vanillin]
- Substrate utilization by C. basilensis HMF14 [1, 13]: Y

Compound: COc1cc(CO)ccc1O [Vanillyl alcohol]
- Substrate utilization by C. basilensis HMF14 [1, 13]: Y

Compound: O=C[C@H](O)[C@@H](O)[C@H](O)CO [Xylose]
- Substrate utilization by C. basilensis HMF14 [1, 13]: N
- Growth on carbon source [2]: No growth
- Concentration in hydrolysate during cultivation [3]: stable

Compound: c1ccccc1 [benzene]
- Growth on carbon source [2]: able to grow

Compound: O=C(O)CC(O)(CC(=O)O)C(=O)O [citrate]
- Growth on carbon source [2]: able to grow

Compound: O=C(CO)[C@@H](O)[C@H](O)[C@H](O)CO [fructose]
- Metabolic activity of R. Eutropha on compound [11]: high metabolic activity

Compound: O=C(O)[C@H](O)[C@@H](O)[C@H](O)[C@H](O)CO [gluconate]
- Growth on carbon source [2]: able to grow

Compound: O=C(O)CCC(=O)O [succinate]
- Growth on carbon source [2]: able to grow

Compound: Cc1ccccc1 [toluene]
- Growth on carbon source [2]: able to grow
